The source of these data is PubChem BioAssay (NCI).

Test systems include 786-0 renal; CCRF-CEM leukemia; K-562 leukemia; MALME-3M melanoma; OVCAR-3 ovarian; OVCAR-5 ovarian; OVCAR-8 ovarian; SF-539 CNS; SK-MEL-28 melanoma; SK-MEL-5 melanoma; SNB-19 CNS; TK-10 renal; UO-31 renal; RXF 393 renal; HT29 colon.
Holding throughout (test): NCI-60 cell line screen, 48 h

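48-hour exposure; five concentrations; linearly interpolated endpoints. TGI marks complete inhibition of growth.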

For `Oc1ccc(C2Oc3cc(O)cc4c3C2c2cc(O)cc3c2C(c2cc(O)cc5c2C4C(c2ccc(O)cc2)O5)C(c2ccc(O)cc2)O3)cc1` (configuration not stated), the TGI in the assay on 786-0 renal is above 25 µM; in the assay on CCRF-CEM leukemia it was above 25 µM; in the assay with K-562 leukemia, above 25 µM; in the assay with MALME-3M melanoma it was 20.7 µM; with OVCAR-3 ovarian, above 25 µM; in the assay on OVCAR-5 ovarian it was above 25 µM. In addition, the TGI was 22.8 µM with OVCAR-8 ovarian; 22.8 µM in the assay with SF-539 CNS; 16.9 µM in the assay on SK-MEL-28 melanoma; above 25 µM with SK-MEL-5 melanoma; above 25 µM with SNB-19 CNS; above 25 µM in the assay with TK-10 renal. The TGI with UO-31 renal is above 25 µM.
Regarding `CCc1ccc(Cc2ccc(CC)c(NC(=O)C(=O)C3NC(=S)NC3=O)c2CC)c(CC)c1NC(=O)C(=O)C1NC(=S)NC1=O` (configuration not stated), the TGI in the assay on 786-0 renal, with CCRF-CEM leukemia, in the assay with K-562 leukemia, in the assay on MALME-3M melanoma, with OVCAR-3 ovarian and in the assay with OVCAR-5 ovarian was above 100 µM in each case. The TGI in the assay on OVCAR-8 ovarian, in the assay on RXF 393 renal, in the assay on SF-539 CNS, in the assay on SK-MEL-28 melanoma, with SK-MEL-5 melanoma and in the assay with SNB-19 CNS was above 100 µM throughout. Moreover, the TGI with TK-10 renal and with UO-31 renal was above 100 µM each time.
Regarding `Cn1ccc(=NS(=O)(=O)c2ccccc2)cc1`, the TGI in the assay with 786-0 renal, in the assay with CCRF-CEM leukemia, in the assay with HT29 colon, in the assay with K-562 leukemia, in the assay on MALME-3M melanoma and with OVCAR-3 ovarian was above 100 µM in each case. The TGI with OVCAR-5 ovarian, in the assay on OVCAR-8 ovarian, with RXF 393 renal, in the assay on SF-539 CNS, with SK-MEL-28 melanoma and with SK-MEL-5 melanoma was above 100 µM throughout. Further, the TGI in the assay with SNB-19 CNS, with TK-10 renal and in the assay with UO-31 renal was above 100 µM in each case.
With `CC(C)(CCl)NC(=O)c1cccc(C(=O)NC(C)(C)CCl)n1`, the TGI with 786-0 renal, with CCRF-CEM leukemia, in the assay with HT29 colon, with K-562 leukemia, with MALME-3M melanoma and in the assay with OVCAR-3 ovarian was above 100 µM throughout. Further, the TGI in the assay on OVCAR-5 ovarian, in the assay on RXF 393 renal, in the assay with SF-539 CNS, with SK-MEL-28 melanoma, in the assay with SK-MEL-5 melanoma and in the assay with SNB-19 CNS was above 100 µM in each case. The TGI with TK-10 renal and in the assay on UO-31 renal was above 100 µM in each case.
As to `C=CCCCN1CCCCC1=S`, the TGI in the assay on 786-0 renal, in the assay on CCRF-CEM leukemia, with HT29 colon, in the assay with K-562 leukemia, in the assay on MALME-3M melanoma and in the assay on OVCAR-3 ovarian was above 100 µM each time. The TGI with OVCAR-5 ovarian, in the assay with OVCAR-8 ovarian, in the assay with RXF 393 renal, with SF-539 CNS, in the assay on SK-MEL-28 melanoma and with SK-MEL-5 melanoma was above 100 µM throughout. In addition, the TGI with SNB-19 CNS, in the assay with TK-10 renal and with UO-31 renal was above 100 µM throughout.
Take `N#Cc1ccc(OCCSCCCCCCCCCCSCCOc2ccc(C#N)cc2)cc1`: the TGI with 786-0 renal, with CCRF-CEM leukemia, with K-562 leukemia, in the assay with MALME-3M melanoma, in the assay with OVCAR-3 ovarian and in the assay on OVCAR-5 ovarian was above 100 µM throughout. Also, the TGI with OVCAR-8 ovarian, with RXF 393 renal, in the assay on SF-539 CNS, with SK-MEL-28 melanoma, with SK-MEL-5 melanoma and in the assay with TK-10 renal was above 100 µM each time. Besides, in the assay on UO-31 renal, the TGI is above 100 µM.
As to `CC(C)c1cccc(C(C)C)c1NC(=O)C(=O)C1CCC2=C(Sc3ccccc3N2)C1=O` (configuration not stated), the TGI in the assay with 786-0 renal, with CCRF-CEM leukemia, in the assay on HT29 colon, in the assay on K-562 leukemia, in the assay on MALME-3M melanoma and with OVCAR-3 ovarian was above 100 µM each time. Besides, the TGI with OVCAR-5 ovarian was above 100 µM; in the assay on OVCAR-8 ovarian, above 100 µM; in the assay with RXF 393 renal, above 100 µM; in the assay on SF-539 CNS it was 76.7 µM; with SK-MEL-28 melanoma it was above 100 µM; with SK-MEL-5 melanoma, above 100 µM. For the same compound, the TGI in the assay on SNB-19 CNS, with TK-10 renal and with UO-31 renal was above 100 µM throughout.
For the compound `CN/N=C(\C)C(CN1CCCCC1)C(C1=C(O)c2ccccc2OC1)c1ccccc1` (configuration not stated), the TGI in the assay on 786-0 renal, in the assay on CCRF-CEM leukemia, in the assay on HT29 colon, in the assay with K-562 leukemia, in the assay with MALME-3M melanoma and in the assay on OVCAR-3 ovarian was above 100 µM in each case. Also, the TGI in the assay with OVCAR-5 ovarian, with OVCAR-8 ovarian, in the assay on RXF 393 renal, in the assay with SF-539 CNS, with SK-MEL-28 melanoma and in the assay on SK-MEL-5 melanoma was above 100 µM in each case. The TGI with SNB-19 CNS, with TK-10 renal and in the assay with UO-31 renal was above 100 µM throughout.
For `CC(C)(C)OC(=O)N1CC(C)(C)N2C(=O)C3(CCCO3)C12` (configuration not stated), the TGI in the assay on 786-0 renal, in the assay on CCRF-CEM leukemia, in the assay with HT29 colon, with K-562 leukemia, with MALME-3M melanoma and in the assay on OVCAR-3 ovarian was above 100 µM in each case. Also, the TGI with OVCAR-5 ovarian, in the assay on OVCAR-8 ovarian, in the assay with RXF 393 renal, in the assay on SF-539 CNS, in the assay on SK-MEL-28 melanoma and in the assay with SK-MEL-5 melanoma was above 100 µM throughout. The TGI with SNB-19 CNS, in the assay on TK-10 renal and in the assay on UO-31 renal was above 100 µM throughout.
Consider `C#CC(C)(C)OCCCCOc1cc(O)c2c(=O)c3ccccc3n(C)c2c1`, for which the TGI in the assay with 786-0 renal was above 100 µM; in the assay on CCRF-CEM leukemia, above 100 µM; with HT29 colon, 45.7 µM; with K-562 leukemia, above 100 µM; with MALME-3M melanoma it was above 100 µM; in the assay on OVCAR-3 ovarian, above 100 µM. In addition, the TGI with OVCAR-5 ovarian, with OVCAR-8 ovarian, with RXF 393 renal, with SF-539 CNS, in the assay on SK-MEL-28 melanoma and in the assay on SK-MEL-5 melanoma was above 100 µM throughout. Besides, the TGI in the assay on SNB-19 CNS, in the assay with TK-10 renal and with UO-31 renal was above 100 µM each time.
As to `O=c1[nH]nc(CNc2ccc(Cl)cc2Cl)c2ccccc12`, the TGI was 41.3 µM in the assay with 786-0 renal; above 100 µM in the assay with CCRF-CEM leukemia; above 100 µM in the assay on HT29 colon; above 100 µM with K-562 leukemia; 49.7 µM in the assay on MALME-3M melanoma; 40.3 µM in the assay on OVCAR-3 ovarian. Moreover, the TGI is above 100 µM in the assay on OVCAR-5 ovarian; 34.9 µM with RXF 393 renal; 41 µM with SF-539 CNS; 52.4 µM with SK-MEL-28 melanoma; 50.6 µM in the assay on SK-MEL-5 melanoma; 60.7 µM with SNB-19 CNS. For the same compound, the results for the TGI in the assay on TK-10 renal and with UO-31 renal were 45.7 µM and 33.7 µM, respectively.
As for `CN1N=C2c3ccccc3OC(c3ccccc3)[C@H]2C1c1ccccc1` (some centres not stated), the TGI is above 100 µM with 786-0 renal; above 100 µM in the assay with CCRF-CEM leukemia; above 100 µM in the assay with HT29 colon; above 100 µM with K-562 leukemia; 78.3 µM in the assay with MALME-3M melanoma; above 100 µM in the assay with OVCAR-3 ovarian. The TGI with OVCAR-5 ovarian is above 100 µM; with OVCAR-8 ovarian it was above 100 µM; in the assay with RXF 393 renal, 88.5 µM; in the assay on SF-539 CNS it was above 100 µM; in the assay on SK-MEL-28 melanoma, above 100 µM; in the assay with SNB-19 CNS, above 100 µM. For the same compound, the TGI with TK-10 renal and with UO-31 renal was above 100 µM in each case.
Take `O=C1NC(=S)NC(=O)C1=CC1CC1`: the TGI with 786-0 renal, in the assay on CCRF-CEM leukemia, with HT29 colon, in the assay on K-562 leukemia, with MALME-3M melanoma and in the assay with OVCAR-5 ovarian was above 100 µM each time. Moreover, the TGI with OVCAR-8 ovarian, with RXF 393 renal, with SF-539 CNS, in the assay with SK-MEL-28 melanoma, in the assay on SK-MEL-5 melanoma and with SNB-19 CNS was above 100 µM throughout. Further, the TGI in the assay on TK-10 renal and in the assay on UO-31 renal was above 100 µM each time.
As to `CCCCCCCC(=O)OC[C@H](C[As](=O)(O)O)OC(=O)CCCCCCC`, the TGI turned out to be 26.7 µM in the assay on 786-0 renal; 8.8 µM in the assay with CCRF-CEM leukemia; 25.2 µM in the assay with HT29 colon; 41.6 µM in the assay on K-562 leukemia; 25.3 µM in the assay on MALME-3M melanoma; 32 µM in the assay with OVCAR-8 ovarian. Also, the TGI with RXF 393 renal came to 16 µM; in the assay with SF-539 CNS, 18.2 µM; with SK-MEL-28 melanoma, 26.5 µM; in the assay with SK-MEL-5 melanoma, 26.8 µM; in the assay on SNB-19 CNS, 27.3 µM; with UO-31 renal it was 16.5 µM.
As to `Nc1ccn(CCOC(c2ccccc2)P(=O)(O)O)c(=O)n1` (configuration not stated), the TGI with 786-0 renal, in the assay on CCRF-CEM leukemia, with HT29 colon, in the assay with MALME-3M melanoma, with OVCAR-3 ovarian and in the assay on OVCAR-5 ovarian was above 100 µM throughout. Moreover, the TGI in the assay with OVCAR-8 ovarian, in the assay on RXF 393 renal, in the assay with SF-539 CNS, with SK-MEL-28 melanoma, with SK-MEL-5 melanoma and with SNB-19 CNS was above 100 µM each time. Also, the TGI with TK-10 renal and in the assay on UO-31 renal was above 100 µM throughout.
